The text below walks through data of patent publication US20110034510A1, “ENANTIOMER-ENRICHED ALPHA-,OMEGA-AMINO ALCOHOL DERIVATIVES, THEIR PRODUCTION AND USE AS INSECT- AND MITE-REPELLING AGENTS” (SALTIGO GMBH, priority 2006, published 2011).

The test system of one assay is Aedes aegypti. Kind of assay: Repellent test on a guinea pig (Aedes aegypti). Particulars: shaved guinea pig back (50 cm^2) treated with 0.4 ml of solution, 3 parts by weight active ingredient in 100 parts by volume ethanol; bites observed 10 minutes, repeated hourly, maximum 9 hours. Type of assay: in vivo. As for the experimental part: A) Repellent Test on a Guinea Pig
Test Animal: Aedes aegypti (Imagines)
3 parts by weight of active ingredient are taken up in 100 parts by volume of solvent
A guinea pig whose back has been shaved in an area of 50 cm^2 is accommodated in a box such that only the shaved area is accessible to the mosquitoes.
It is observed for 10 minutes how many mosquitoes bite the guinea pig. Subsequently, it is removed and the test is repeated after 1 hour. The experiment is performed for a maximum of 9 hours or until the effect ceases.

Another assay concerns mosquitoes. Kind of assay: Repellent test against mosquitoes on the human lower arm. It is filed as in vivo. To be noted: compared to the standard racemic mixture; 150 μl test product on 90 cm^2 of human lower arm; 3-minute exposure every hour for up to 8 hours. An excerpt: B) Repellent Effectiveness of Formulations for Use Against Mosquitoes on the Human Arm: […]
The insects, as an actively biting population (approx. 1000 mosquitoes of both genders), are kept in cages (length 90 cm, width 30 cm, height 40 cm, side walls made of gauze) which have two light fabric gates on the front side. The insects have been fed exclusively with sugared water (10% Dextropur). The age of the insects is at least 7 days; the number of insects is made up twice per week by 3-day old fully grown insects.
The low electrical illumination of the cage is active from 6 am to 6 pm, with light from 6 pm to 6 am. The temperature is 25-27° C.; the relative air humidity is 50-70%.
The lower arms of the test subjects are washed with unperfumed soap, rinsed with water, then rinsed with a solution of 70% ethanol and 30% water, and dried with a towel.
90 cm^2 of each lower arm of a test subject is rubbed uniformly with 150 μl (or 150 mg) of the test product. As soon as the formulation is dry (after approx. 5 minutes), a sleeve with an opening of 3.1-8 cm (25 cm^2) is bound around the arm such that the opening is completely over the treated surface. The corners of the opening of the sleeve have likewise been rubbed with the test material (2000) in a width of 1 cm in order to prevent bites at the corners. The area above the sleeve has been protected with a towel through which the mosquitoes cannot penetrate. Hands are protected with latex gloves.
Both arms are introduced into the cage through the fabric gate, and the number of bites (and landings, if necessary) per arm is noted within a 3-minute test period. The test is repeated every hour for up to 8 hours, or ended beforehand if the effect ceases (3 or more bites within 3 minutes or during 2 successive test sequences). Each test consists of three to 5 test subjects.

In the case of `CC[C@@H](C)OC(=O)N1CCCC[C@@H]1CCO` (single isomer, unassigned), in the assay with Aedes aegypti, the “Protection time” value came out at 4.4 h. The “Increase in the protection time* in %” value in the assay on mosquitoes was 3%.
Taken in the same sequence, the figures for `CCC(C)OC(=O)N1CCCCC1CCO` (stereo in doubt) [1-[(R)-sec-butyloxycarbonyl]-2-(S)-(+)-(2-hydroxyethyl)piperidine] were 3.4 h and 12%.
For `CC[C@H](C)OC(=O)N1CCCC[C@@H]1CCO` (stereo in doubt) [1-[(S)-sec-butyloxycarbonyl]-2-(R)-(+)-(2-hydroxyethyl)piperidine], the “Protection time” value in the assay with Aedes aegypti is on record as 4.9 h. Besides, the “Increase in the protection time* in %” value with mosquitoes was determined as 0%.
The corresponding values for `CC[C@H](C)OC(=O)N1CCCC[C@H]1CCO` [1-[(S)-sec-butyloxycarbonyl]-2-(S)-(2-hydroxyethyl)piperidine] are 3.9 h and 0%.
